Consider five compounds from paper PMC9612222, “Comparative Evaluation of the Antiglycation and Anti-α-Glucosidase Activities of Baicalein, Baicalin (Baicalein 7-O-Glucuronide) and the Antidiabetic Drug Metformin” (Pharmaceutics, 2022).

A short description of data set [1]: DPPH radical scavenging assay. The note with it: for pD2 (−log EC50) antiradical potency: 70 µM DPPH, 60 min. On the procedure:
The free radical scavenging activity of the samples was measured using the DPPH^• method. Sample solutions were prepared and added to 70 µM DPPH^•; the mixtures were kept in the dark for 60 min and absorbance was read at 517 nm using a Beckman Coulter DU 8005 spectrophotometer (Fullerton, CA, USA). The radical scavenging capacity was expressed as a percentage effect.

The nature of another data set: ORAC assay. The conditions noted are these: 5.0 µM compound. The procedure:
The radical oxygen absorption capacity (ORAC) assay was performed as previously described. Briefly, trolox was prepared in phosphate buffer over a concentration range of 6.25 to 50 µM. In 24–well plates, 1.5 mL of fluorescein (0.08 µM) was added, followed by 250 µL of trolox for the control, 250 µL of buffer for the blank, and 250 µL of each inhibitor (5.0 µM). After 10 min of incubation, at 37 °C, 250 µL of 0.15 M AAPH was added. Successively, the PerkinElmer Victor Nivo microplate reader (Waltham, MA, USA) was settled for a fluorescence kinetic reading at 37 °C for one hour, with excitation and emission wavelengths, respectively, of 485 and 530 nm. The results were expressed in TEAC (trolox equivalent antioxidant capacity, TE µmol/µmol compound).

The test system of data set [2] is α–glucosidase (EC 3.2.1.20, Saccharomyces cerevisiae type I). It counts as biochemical. The conditions noted are these: for inhibition of α–glucosidase activity: 50 µM compound. On the procedure: The inhibitory activity of baicalein and baicalin was studied using the yeast α–glucosidase assay, using pNPG as a substrate. The enzyme acts by hydrolyzing pNPG into […] and p–nitrophenol (yellow); the reaction was detected at different inhibitor concentrations by variation in chromatic intensity. Acarbose ([…]) was used as a positive control. Each sample was incubated with several α–glucosidase concentrations (0.035, 0.05, 0.07 and 0.1 µM) in PBS solutions (pH 6.8) for 10 min, at 37 °C. The reaction started with the addition of pNPG. Absorbance values were detected at 405 nm for 60 min, using a PerkinElmer Victor Nivo microplate reader spectrophotometer (Waltham, MA, USA). The half–maximal inhibitory concentration (IC50) was estimated by the plot of relative enzyme activity versus inhibitor concentration. The type of enzyme inhibition exerted by baicalein was evaluated from kinetic studies using different substrate concentrations (0.5, 1.0, 1,5 and 2.0 mM pNPG) through the Michaelis–Menten and Lineweaver–Burk plots.

In data set [3] the test system is HT–29 cells. In words: HT–29 uptake assay (HPLC–DAD). It counts as in vitro ADME, human. The note with it: 1 to 50 µM in cell medium, 30 min–3 h. The procedure:
To evaluate the cellular uptake of compounds, a previously described method was used. Briefly, HT–29 cells were seeded in a 6–well plate at a density of 500,000 cells in each well in a complete medium and allowed to grow until confluence for 48 h, at 37 °C (Figure 11). […] After incubation, an aliquot of the extracellular solution was taken from each well and stored at −20 °C for further analysis. The medium was then removed, the cells were washed with PBS and prepared for the following steps: (i) protein quantification, cells were lysed with 200 μL of lysis buffer and the wells were washed with 200 μL of PBS; and (ii) evaluation of cell uptake, cells were gently scraped with PBS, centrifuged at 1250× g rpm for 5 min, and added with 500 μL of 80% v/v methanolic solution in water/0,1% v/v acetic acid to extract intracellular content. The samples were kept on ice for 15 min, then sonicated and centrifuged at 20,000× g rpm for 10 min. […]
Chromatographic analyses were performed with an HPLC instrument (Waters Corporation, Milford, DE, USA) equipped with a 1525 binary HPLC pump and a 2998 photodiode array detector. […] Peaks were detected in the range of 210–400 nm. […] The amount of each compound was calculated using a standard calibration curve. The protein content of the lysate was detected using the Lowry protein assay, to express the results as nmol/mg protein.

Data set [4] can be described thus: GK peptide–ribose assay (peptide cross–linking). The conditions noted are these: 2 days; for reduction of GK peptide cross–linking (in words): 1–100 µM. On the procedure:
The N–acetyl–glycyl–lysine methyl ester (GK) peptide–ribose assay was performed with some modifications to a published method. Briefly, GK peptide (27 mg/mL), a synthetic model peptide, was incubated with 40 mg/mL (0.27 M) D–ribose in sodium phosphate buffer (pH 7.4) and test samples were added at final concentrations ranging from 1.0–100 μM. After 48 h of incubation, fluorescence was read at 355 and 460 nm for excitation and emission wavelengths, respectively, with a PerkinElmer Victor Nivo microplate reader (Waltham, MA, USA). The fluorescence measurement allows the calculation of GK peptide glycation inhibition as a percentage difference between the control condition and glycation in the presence of the inhibitor. Aminoguanidine (2.5 mM, AG) was used as a positive control.

Another data set has as its target α–glucosidase. The note with it: cited from earlier work.
Data set [5] has as its system BSA. In words: Carbonyl content assay (BSA–ribose glycation). More on the design: species or system bovine. The conditions noted are these: 50 mg/mL BSA + 0.1 M ribose; for inhibition of carbonyl increase: not concentration dependent. On the procedure: The total protein–bound carbonyl content was determined by derivatization of the carbonyl group with 2,4–dinitrophenylhydrazine (DNPH), which leads to the formation of a stable dinitrophenylhydrazone product, which was monitored spectrophotometrically at 375 nm with a PerkinElmer Victor Nivo microplate reader (Waltham, MA, USA). Glycated BSA samples were mixed with DNPH solution (10 mM in 2.0 M HCl) for 1 h at 37 °C in the dark. The proteins were precipitated with 20% trichloroacetic acid. The mixture was centrifuged at 10,000× g rpm, 10 min at 4 °C, to obtain a pellet and the supernatant was removed. DNPH was removed by extracting the pellet twice using a solution of ethyl acetate/ethanol (1:1). Lastly, the pellet was dissolved in guanidine hydrochloride (6 M) before reading the absorbance at 375 nm. The concentration of DNPH derivatized proteins was determined by the molar extinction coefficient of 22,000 M^−1 cm^−1 [64]. The protein concentration was measured using a BCA assay, and the protein carbonyl concentration was expressed as nmol/mg of protein. Aminoguanidine (2.5 mM, AG) was used as a positive control.

Data set [6] deals with BSA. In words: BSA assay (AGE formation by fluorescence). More on the design: species or system bovine. The note with it: for concentration inhibiting glyoxal-induced BSA glycation: 50 mg/mL BSA + 0.003 M glyoxal. On the procedure: Glycated BSA was obtained according to a previously reported method. Briefly, AGEs were detected using BSA (50 mg/mL, pH 7.4), as protein substrate, and glucose (0.8 M), glyoxal (0.003 M) or ribose (0.1 M), as glycation agents. […] The fluorescence intensity was measured at an excitation wavelength of 355 nm and an emission wavelength of 460 nm with a PerkinElmer Victor Nivo microplate reader (Waltham, MA, USA). Inhibition of AGE formation was calculated as the fluorescence difference between glycation under the control condition and in the presence of each inhibitor. Aminoguanidine (2.5 mM, AG) was used as a positive control.

The target of another data set is rat α–glucosidase. The note with it: cited from earlier work.
Data set [7] deals with HT–29 cells. As to the kind of experiment: MTT cell viability assay. It counts as cell-based, human. On the procedure: Cell viability was assessed with the MTT assay. HT–29 cells were seeded in a 96–well plate at a density of 5000 cells in each well and allowed to grow overnight. The cells were treated with various concentrations of the substances. After 24 h of incubation, an aliquot of MTT solution was added to each well, to reach the final concentration of 500 μg/mL. Subsequently, after the MTT reduction by cellular enzymes, the medium was removed and the insoluble formazan salts were solubilized with 2–propanol. The absorbance of each purple formazan solution was measured using a PerkinElmer Victor Nivo microplate reader (Waltham, MA, USA), at a wavelength of 520 nm.

The mark [8] stands for this setting: α–glucosidase 0.035 µM, 2 mM pNPG.
The mark [9] stands for this setting: α–glucosidase 0.05 µM, 2 mM pNPG.
[10] abbreviates: α–glucosidase 0.07 µM, 2 mM pNPG.
[11] abbreviates: α–glucosidase 0.10 µM, 2 mM pNPG.
Where [12] appears, read: 50 mg/mL BSA + 0.1 M ribose, 5 days.
[13] abbreviates: 50 mg/mL BSA + 0.8 M glucose, 7 days.

Structures are written as SMILES. Where two headings read alike, the source gives them in different places. Marks after values point to notes of the source that are not given here. Some results are limits rather than exact numbers.

As to `CC(=O)N[C@@H](CS)C(=O)O` [NAC, N–acetylcysteine], the “pD2 (−log EC50) antiradical potency” value in data set [1] is on record as 4.38 ± 0.02. Besides, the “TEAC (trolox equivalent antioxidant capacity)” value (“TEAC” below) in “ORAC assay” came to 1.45 ± 0.01 µmol TE/µmol.

For the compound `O=C1O[C@H]([C@@H](O)CO)C(O)=C1O` [ascorbic acid], the “pD2 (−log EC50) antiradical potency” value in [1] was found to be 4.77 ± 0.04. For the same compound, the “TEAC” value in “ORAC assay” came to 0.65 ± 0.01 µmol TE/µmol.

With `O=c1cc(-c2ccccc2)oc2cc(O)c(O)c(O)c12` [baicalein, 5,6,7–trihydroxyflavone], the “inhibition of α–glucosidase activity” value in data set [2] (0.035 µM α–glucosidase) is recorded as “about 90%”; in [2] (0.05 µM α–glucosidase), around 75%. The “type of enzyme inhibition” value in [2] (Lineweaver–Burk plot, 0.05 µM enzyme, 0.5–2.0 mM pNPG) is recorded as “mixed–type”. The Ki was 25.9 µM in data set [2] (mixed–model inhibition, 0.05 µM enzyme, 0.5–2.0 mM pNPG, read-out: inhibition constant (Ki)); 45 µM at α–glucosidase (ref 53); 44 µM on α–glucosidase (ref 54); 14.6 µM on rat α–glucosidase (ref 49). Besides, the IC50 in data set [2] (setting [8]) is 18.1 µM; in data set [2] (setting [9]), 24.1 µM; in data set [2] (setting [10]), 51.6 µM; in data set [2] (setting [11]), 555 µM; in [4] (GK peptide + ribose, read-out: IC50 of AGE formation (GK cross–linking)), 49.7 ± 0.5 µM; in the data set on HT–29 cells [7] (Homo sapiens, HT-29, 0.1 to 50 µM, 24 h, read-out: pD2 for inhibition of HT–29 cell viability (converted)), 36.3 µM. The “pD2 (−Log IC50)” value in data set [2] (setting [8]) was 4.74 ± 0.02 ^a; in data set [2] (setting [9]) it was 4.62 ± 0.04 ^a; in data set [2] (setting [10]) it was 4.29 ± 0.07 ^a; in data set [2] (setting [11]), 3.26 ± 0.26 ^b. Besides, the “parent compound after incubation with cells (in words)” value in the data set with HT–29 cells [3] is recorded as “no longer measurable”. Moreover, in data set [1], the “pD2 (−log EC50) antiradical potency” value is recorded as 4.91 ± 0.01. Further, the “TEAC” value in “ORAC assay” was determined as 5.41 ± 0.33 µmol TE/µmol. Moreover, in data set [4] (GK peptide + ribose), the “pD2 of AGE formation (GK cross–linking)” value is reported as 4.3. The “concentration range with detectable reduction of carbonyl increase” value with BSA [5] lay within 10 to 100 µM. Further, the “inhibition of carbonyl increase” value in the data set on BSA [5] is recorded as 15–25%. Moreover, in the data set on BSA [6] (7 days), the “concentration inhibiting glyoxal-induced BSA glycation” value worked out at 10 µM. Moreover, the “concentration from which glycated albumin is reduced” value in the data set with BSA [6] (setting [12]) came out at 5 µM. Also, the “concentration from which AGE formation is significantly inhibited” value in the data set with BSA [6] (setting [13]) was determined as 5 µM. For the same compound, the “change of cell viability” value with HT–29 cells [7] (5 µM) is listed as −25 % of the control.

With `O=C(O)[C@H]1O[C@@H](Oc2cc3oc(-c4ccccc4)cc(=O)c3c(O)c2O)[C@H](O)[C@@H](O)[C@@H]1O` [baicalin, 7–β–D–glucuronic acid of 5,6–trihydroxyflavone], in [2] (0.05 µM enzyme, 2 mM pNPG, 1–100 µM compound), the “effect on α–glucosidase activity (in words)” value is “did not induce any modification”. For the same compound, the “pD2 (−log EC50) antiradical potency” value in data set [1] amounted to 4.89 ± 0.03. Further, in the data set “ORAC assay”, the “TEAC” value is 5.90 ± 0.23 µmol TE/µmol. The “reduction of GK peptide cross–linking (in words)” value in data set [4] is “only slightly and not significantly reduced”. In addition, in the data set on BSA [5], the “concentration range with detectable reduction of carbonyl increase” value lay in the range of 10 to 100 µM, the “lowest concentration tested that inhibited carbonyl formation” value stood at 5 µM and the “inhibition of carbonyl increase” value is listed as 15–25%. The “concentration inhibiting glyoxal-induced BSA glycation” value with BSA [6] (7 days) is 5 µM. Further, the “concentration from which glycated albumin is reduced” value in the data set on BSA [6] (setting [12]) is 5 µM. The “concentration from which AGE formation is significantly inhibited” value in the data set on BSA [6] (setting [13]) is 5 µM. For the same compound, at rat α–glucosidase (in vitro), the IC50 was above 400 µM.

As to `CN(C)C(=N)NC(=N)N` [metformin, 1,1–dimethylbiguanide], the “DPPH scavenging effect (in words)” value in [1] (0.1 to 500 µM) was “did not show any scavenging effect”. The “TEAC” value in “ORAC assay” was found to be 0.48 ± 0.10 µmol TE/µmol. Moreover, the “reduction of GK peptide cross–linking (in words)” value in data set [4] is given as “not active”. For the same compound, the “inhibition of AGE formation (in words)” value is “did not achieve any protection” in the data set with BSA [6] (setting [12]); “did not show any significant inhibition” with BSA [6] (setting [13]); “did not show a significant effect” in the data set with BSA [6] (1–100 µM, glucose, glyoxal and ribose (Figure 3)).
